Measured values as given in patent publication US11198680B2 (BioAxone BioSciences, Inc., priority 2016, dated 2021).
Like-named read-outs stand apart in the source and are kept apart here.

How the values were obtained:
ROCK2 [1] = target: T1, ROCK2 (Homo sapiens (Human), UniProt O75116); settings: ratio of dissociation constants ROCK1/ROCK2
Method: (§3) The assay is performed by combining the DNA-tagged kinase, immobilized ligand, and a test compound. The ability of the test compound to compete with the immobilized ligand is measured via quantitative PCR of the DNA tag.
(§4) The highest concentration tested was 30 μM.

rat hepatocytes = experiment: Metabolism in cultured hepatocytes; format: in vitro ADME
Method: Test articles were incubated in duplicate rat hepatocytes at 37° C. The reaction contained […] KHB buffer, a pH 7.4. At indicated times (0 min, 15 min, 30 min, 60 min, 120 min), an aliquot was removed from each experimental and control reaction and mixed with an equal volume of ice-cold methanol. Stopped reactions were incubated at least ten minutes at −20° C. The samples were centrifuged to remove precipitated protein, and the supernatants were analyzed by LC-MS/MS.

ROCK2 [2] = target: T1, ROCK2; experiment: Direct filter-binding radiometric kinase assay, IC50 determination; format: biochemical
human hepatocytes = experiment: Metabolism in cultured hepatocytes; format: in vitro ADME
ROCK1 [3] = target: ROCK1 (Homo sapiens (Human), UniProt Q13464); experiment: biochemical
ROCK1 (Homo sapiens (Human), UniProt Q13464), sequence (Q13464 2-1354 limits assumed): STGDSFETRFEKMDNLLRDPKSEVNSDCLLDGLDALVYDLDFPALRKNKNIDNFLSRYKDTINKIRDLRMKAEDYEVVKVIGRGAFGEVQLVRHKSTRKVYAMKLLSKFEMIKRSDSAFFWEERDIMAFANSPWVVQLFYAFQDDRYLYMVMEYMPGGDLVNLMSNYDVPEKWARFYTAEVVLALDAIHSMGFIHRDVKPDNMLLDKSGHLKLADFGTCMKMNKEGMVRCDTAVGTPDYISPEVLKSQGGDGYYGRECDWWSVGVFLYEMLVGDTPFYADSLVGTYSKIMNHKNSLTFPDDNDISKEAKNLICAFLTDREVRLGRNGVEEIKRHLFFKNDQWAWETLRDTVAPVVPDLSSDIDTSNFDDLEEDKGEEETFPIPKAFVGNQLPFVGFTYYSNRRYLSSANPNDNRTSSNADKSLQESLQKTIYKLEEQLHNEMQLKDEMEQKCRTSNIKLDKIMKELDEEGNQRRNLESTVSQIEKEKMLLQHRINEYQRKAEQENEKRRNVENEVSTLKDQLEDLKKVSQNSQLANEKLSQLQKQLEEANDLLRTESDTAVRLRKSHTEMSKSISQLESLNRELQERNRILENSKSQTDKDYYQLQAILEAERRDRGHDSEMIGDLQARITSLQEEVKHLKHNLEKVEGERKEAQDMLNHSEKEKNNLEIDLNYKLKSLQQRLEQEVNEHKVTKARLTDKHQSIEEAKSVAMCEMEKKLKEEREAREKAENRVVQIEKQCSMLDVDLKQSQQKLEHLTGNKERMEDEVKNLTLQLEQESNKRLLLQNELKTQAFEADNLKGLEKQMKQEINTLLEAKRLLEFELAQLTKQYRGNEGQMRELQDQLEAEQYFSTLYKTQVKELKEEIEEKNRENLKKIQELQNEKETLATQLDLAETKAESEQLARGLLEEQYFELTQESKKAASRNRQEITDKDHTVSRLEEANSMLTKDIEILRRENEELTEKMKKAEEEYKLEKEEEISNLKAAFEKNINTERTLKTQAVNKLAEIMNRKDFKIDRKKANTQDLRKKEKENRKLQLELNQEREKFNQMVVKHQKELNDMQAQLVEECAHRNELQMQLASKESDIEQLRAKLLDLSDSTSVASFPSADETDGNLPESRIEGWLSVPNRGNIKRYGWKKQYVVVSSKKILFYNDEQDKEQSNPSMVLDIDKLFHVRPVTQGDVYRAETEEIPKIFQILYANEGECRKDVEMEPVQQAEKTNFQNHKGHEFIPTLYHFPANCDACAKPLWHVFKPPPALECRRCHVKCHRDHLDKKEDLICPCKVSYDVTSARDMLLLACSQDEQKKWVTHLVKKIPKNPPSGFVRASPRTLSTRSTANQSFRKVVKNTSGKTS
Method: as §3, §4

[4] = system: cynomolgus monkey hepatocytes; experiment: Metabolism in cultured hepatocytes; format: in vitro ADME
HUVEC monolayer = experiment: LPA-treated HUVECs, endothelial monolayer integrity; format: cell-based, human; settings: 1 μM or 10 μM, 20 μM LPA 60 min
Method: (§5) Cell lines were exposed to each dose for 1 hr, and then are stimulated with 20 μM LPA for either 5 min or 1 hr as described below. All experiments were conducted in triplicate and analyzed by two independent assessors blinded to both cell line and treatment.
To examine HUVEC monolayer integrity, cells were plated on PDL-coated coverslips (Corning) coated with fibronectin, collagen-1 and gelatin. 50,000 cells were seeded on each coverslip situated in a 24-well plate. Cells were grown for 3 days at 37° C./5% CO2. […] The medium was exchanged by Medium 200 supplemented with 0.1% HSA and 20 μM of LPA (Santa Cruz) and incubated for 60 min.
After LPA stimulation, cells were fixed with 4% paraformaldehyde and stained for actin-phalloidin (ThermoFisher, Waltham, Mass.) and V-Cadherin (Cell Signaling, Danvers, Mass.) and mounted on microscope slides. Coverslips were imaged by fluorescence microscopy and the cell free holes in the monolayer are measured using Image J (freeware; https://imagej.nih.gov/ij/).

ROCK1 [5] = settings: percent of negative control binding; second row printed ROCK1, text says ROCK1 and ROCK2
Source text: (§1) The KINOMEscan™ screening platform (DiscoverX, Fremont, Calif.) employs a novel active site-directed competition binding assay to quantitatively measure interactions between test compounds and more than 450 human kinases and disease relevant mutant variants. […] Compounds that bind the kinase active site and directly (sterically) or indirectly (allosterically) prevent kinase binding to the immobilized ligand, will reduce the amount of kinase captured on the solid support. […] Screening “hits” are identified by measuring the amount of kinase captured in test versus control samples by using a quantitative, precise and ultra-sensitive qPCR method that detects the associated DNA label.
(§2) Kinase-tagged T7 phage strains were grown in parallel in 24-well blocks in an E. coli host derived from the BL21 strain. E. coli were grown to log-phase and infected with T7 phage from a frozen stock (multiplicity of infection=0.4) and incubated with shaking at 32° C. until lysis (90-150 minutes). The lysates were centrifuged (6,000×g) and filtered (0.2 μm) to remove cell debris. The remaining kinases were produced in HEK-293 cells and subsequently tagged with DNA for qPCR detection (Wein, et al. (2016) Nat. Comm. 7). […] Test compounds were prepared as 40× stocks in 100% DMSO and directly diluted into the assay. All reactions were performed in polypropylene 384-well plates in a final volume of 0.02 ml.

GCN = experiment: KINOMEscan kinome screen; design: species or system human; settings: percent of negative control binding
Source text: as §1, §2

AMPK (1 and 2) = experiment: KINOMEscan kinome screen; design: species or system human; settings: percent of negative control binding; 100% equals no interference
Source text: as §1, §2

[6] = system: Rho/ROCK activity (MLC2 diphosphorylation) in HUVECs; experiment: LPA-treated HUVECs, pMLC2 T18/S19 immunoblot; format: cell-based, human
Method: as §5
Cells were subjected to biochemical analysis of diphosphorylated MLC2 (Threonine 18/Serine 19 phosphorylation sites) and cofilin (Serine 9 phosphorylation site) using SDS-PAGE and immunoblotting. Cells were plated in 24-well tissue culture plates coated with 70 μg/ml rat collagen-1 (Corning; Corning, N.Y.), and grown for 2 d to 3 d at 37° C./5% CO2 until confluency. […] Then medium was exchanged for Medium 200 supplemented with 0.1% HSA (Sigma-Aldrich) and 20 μM of LPA (Santa Cruz Biotech; Santa Cruz, Calif.) and incubated for 5 min. After LPA stimulation, proteins were extracted from cells by lysis with RIPA buffer supplemented with HALT complete protease/phosphatase inhibitor (ThermoFisher, Waltham, Mass.), reduced and denatured using Laemmli sample buffer (BioRad, Hercules, Calif.)/beta-mercaptoethanol and subjected to SDS-PAGE.
Denatured samples were electrophoresed in reducing 10% Bis-Tris-gels polyacrylamide gels (Novex; Thermo-Fisher, Waltham, Mass.) and were transferred onto 0.25 μm PVDF membranes (EMD Millipore, Billerica, Mass.). Membranes are probed using amti-pMLC2 T18/S19 (1:500; Cell Signaling, Danvers, Mass.) or anti-pCofilin S9 (1:500, Cell Signaling, Danvers, Mass.) and anti-glyceraldehyde 3-phosphate dehydrogenase loading control (GAPDH, 1:10000; Abcam). Protein levels were detected using chemiluminescence substrate (Super Signal West, ThermoFisher, Waltham, Mass.) and images captured using a FluoroChem SP Imaging System.

hBMVEC monolayer = experiment: LPA-treated hBMVECs, endothelial monolayer integrity; format: cell-based, human; settings: 1 μM or 10 μM, 20 μM LPA, Example 16, present tense
Method: Cells are exposed to each dose for 1 hr, and are then stimulated with 20 μM LPA for either 5 min or 1 hr as described below. All experiments are conducted in triplicate and analyzed by 2 independent assessors blinded to both cell line and treatment.
To examine hBMVECs monolayer integrity, cells are plated on PDL-coated coverslips (Corning) coated with Fibronectin, Collagen-1 and gelatin. 50,000 cells are seeded on each coverslip situated in a 24-well plate. Cells are grown for 3 days in ENDO-growth media (Neuromics) at 37° C./5% CO2. […] The medium is exchanged for ENDO basal media supplemented with 1% HSA, 20 μM of LPA (Santa Cruz Biotech; Santa Cruz, Calif.) and the appropriate amount of compound being tested. After 60 min, cells were fixed with 4% paraformaldehyde and stained for actin-phalloidin (ThermoFisher) and V-Cadherin (Cell Signaling), and then were mounted on microscope slides. Coverslips were imaged by fluorescence microscopy and the cell-free holes in the monolayer are measured using Image J. 3.

C[C@@H](N)C1CCN(S(=O)(=O)c2cccc3cnccc23)CC1 [BA-1049 (R)]
Fractional Selectivity for ROCK2 (ROCK2 [1]): 1.86
½ Life (rat hepatocytes): 60 min
IC50 (ROCK2 [2]; 10 μM ATP, Table 2, read-out: Compound IC50 ROCK2): 240 nM
IC50 (ROCK2 [2]; Compound IC50 ROCK2 10 μM ATP, CRO Eurofins, 10 μM ATP): 240 nM
IC50 (ROCK2 [2]; Compound IC50 ROCK2 10 μM ATP, CRO Reaction Biology, 10 μM ATP): 340 nM
IC50 (ROCK2 [2]; Compound IC50 ROCK2 15 μM ATP, Km ATP 15 μM, Table 3): 340 nM
IC50 (ROCK2 [2]; Compound IC50 ROCK2 15 μM ATP, Km ATP 15 μM, Table 7): 340 nM
IC50 (ROCK2 [2]; read-out: Compound IC50 ROCK2 10 μM ATP, CRO Eurofins, 10 μM ATP): 240 nM
½ Life (human hepatocytes): 41.7 min
Kd (ROCK1 [3]; ROCK1 KD, average of duplicate determinations, Table 5): 99 nM
Kd (ROCK1 [3]; ROCK1 Kd, Table 1): 110 nM
½ Life [4]: 15.3 min

C[C@@H](N)C1CCN(S(=O)(=O)c2cccc3c(=O)[nH]ccc23)CC1 [1-hydroxy-BA-1049 (R)]
monolayer integrity after LPA (HUVEC monolayer): restores monolayer integrity
% Negative Binding, ROCK1 (ROCK1 [5]): 0.35%
% Negative Binding, GCN (GCN): 96%
% Negative Binding, AMPK (1 and 2) (AMPK (1 and 2)): 100%
concentration fully abolishing MLC2 diphosphorylation ([6]; 20 μM LPA): ≥ 10 µM
effect on MLC2 diphosphorylation (pMLC2 T18/S19) ([6]; 1-100 μM 1 hr, 20 μM LPA 5 min): reduce MLC2 diphosphorylation
monolayer integrity / Rho/ROCK activation after LPA (hBMVEC monolayer): prevent Rho/ROCK activation
